Assay results published in patent publication US20250092065A1, “2-(INDAZOL-5-YL)-6-(PIPERIDIN-4-YL)-1,7-NAPHTHYRIDINE DERIVATIVES AND RELATED COMPOUNDS AS MODULATORS FOR SPLICING NUCLEIC ACIDS AND FOR THE TREATMENT OF PROLIFERATIVE DISEASES” (REMIX THERAPEUTICS INC., priority 2022, published 2025).
Structures can show the parent of a compound that is named as a salt. Where two headings read alike, the source gives them in different places.

Tests used:
Assay type in all cases: cell-based, human
MYB = assay: HiBiT protein abundance assay, MYB (K562 HiBiT knock-in); conditions: HiBiT knock-in K562 cells, 24 hours, top dose 10 μM
Summary of the method: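 Luminescence readout: Nano-Glo HiBiT lytic detection after 24 h compound exposure of K562 HiBiT knock-in cells, 10000 cells/well. Dosing 10-pt, 3-fold, top 10 μM final. % response vs untreated parental K562 and DMSO controls; 4PL fit, IC50 = concentration giving 50% protein abundance.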

HTT mRNA = assay: RT-qPCR splicing assay, HTT mRNA canonical (CJ) and alternative (AJ) junction; conditions: Homo sapiens; for AC50: HTT alternative junction mRNA, read-out: HTT AJ (increase in AJ mRNA, AC50)
Summary of the method: (§1)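 A673 or K562 cells treated 24 h at 37 °C with an 11-point 3-fold dilution series (top 10 uM, DMSO ≤0.25%). Lysates went directly to one-step RT-qPCR quantifying canonical (CJ) and alternative-exon (AJ) junctions, normalized to GAPDH, GUSB or PPIA. Values from ΔΔCt versus DMSO, RQ = 2^(−ΔΔCt), expressed as percentage response.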

MYB mRNA = assay: RT-qPCR splicing assay, MYB mRNA canonical (CJ) and alternative (AJ) junction; conditions: Homo sapiens; for AC50: MYB alternative junction mRNA, read-out: MYB AJ (increase in AJ mRNA, AC50)
Summary of the method: as §1

SMN2 mRNA = assay: RT-qPCR splicing assay, SMN2 mRNA; conditions: Homo sapiens, canonical junction qPCR panel, Table 4; read-out: SMN2 IC50 (decrease in CJ mRNA levels)
Summary of the method: as §1

[1] = HTT canonical junction mRNA, RT-qPCR, read-out: HTT CJ (decrease in CJ mRNA levels, IC50)
[2] = canonical junction qPCR panel, Table 4, read-out: HTT IC50 (decrease in CJ mRNA levels)
[3] = MYB canonical junction mRNA, RT-qPCR, read-out: MYB CJ (decrease in CJ mRNA levels, IC50)
[4] = canonical junction qPCR panel, Table 4, read-out: MYB IC50 (decrease in CJ mRNA levels)

Row | SMILES | IC50 (MYB) [nM] | AC50 (HTT mRNA; RT-qPCR) [nM] | IC50 (HTT mRNA; [1]) [nM] | IC50 (HTT mRNA; [2]) [nM] | AC50 (MYB mRNA; RT-qPCR) [nM] | IC50 (MYB mRNA; [3]) [nM] | IC50 (MYB mRNA; [4]) [nM] | IC50 (SMN2 mRNA) [nM]
1 | CCNC(=O)c1nc(-c2cc3cn(C)nc3c(C)c2O)nc2ccc(N3C[C@@H](C)N[C@@H](C)C3)cc12 [Compound 535, 6-[(3R,5S)-3,5-dimethylpiperazin-1-yl]-N-ethyl-2-(6-hydroxy-2,7-dimethylindazol-5-yl)quinazoline-4-carboxamide] | < 100 | 100 to 1000 | < 100 | < 100 | < 100 | < 100 | < 100 | < 100
2 | CNC(=O)c1nc(-c2cc3cn(C)nc3c(C)c2O)nc2ccc(N3CC[C@@H](NC)C3)cc12 [Compound 536, 2-(6-hydroxy-2,7-dimethylindazol-5-yl)-N-methyl-6-[(3R)-3-(methylamino)pyrrolidin-1-yl]quinazoline-4-carboxamide] | < 100 | < 100 | < 100 | < 100 | < 100 | < 100 | < 100 | < 100
3 | CNC(=O)c1nc(-c2cc3cn(C)nc3c(C)c2O)nc2ccc(N3CC[C@H](NC)C3)cc12 [Compound 537, 2-(6-hydroxy-2,7-dimethylindazol-5-yl)-N-methyl-6-[(3S)-3-(methylamino)pyrrolidin-1-yl]quinazoline-4-carboxamide] | < 100 | 100 to 1000 | < 100 | < 100 | < 100 | < 100 | < 100 | < 100
4 | Cc1c(O)c(-c2nc(-c3c[nH]nn3)c3cc(N4CCNCC4)ccc3n2)cc2cn(C)nc12 [Compound 538, 2,7-dimethyl-5-[6-(piperazin-1-yl)-4-(1H-1,2,3-triazol-4-yl)quinazolin-2-yl]indazol-6-ol hydrochloride] | 1000 to 10000 | 1000 to 10000 | 1000 to 10000 | 1000 to 10000 | 1000 to 10000 | 1000 to 10000 | 1000 to 10000 | 100 to 1000
5 | Cc1c(O)c(-c2nc(C(=O)NC(C)C)c3cc(N4C[C@@H](C)N[C@@H](C)C4)ccc3n2)cc2cn(C)nc12 [Compound 539, 6-[(3R,5S)-3,5-dimethylpiperazin-1-yl]-2-(6-hydroxy-2,7-dimethylindazol-5-yl)-N-isopropylquinazoline-4-carboxamide] | < 100 | < 100 | < 100 | < 100 | < 100 | < 100 | < 100 | < 100
6 | Cc1c(O)c(-c2nc(C(=O)NC3CCC3)c3cc(N4C[C@@H](C)N[C@@H](C)C4)ccc3n2)cc2cn(C)nc12 [Compound 540] | < 100 | 100 to 1000 | 1000 to 10000 | 1000 to 10000 | < 100 | < 100 | < 100 | < 100
7 | Cc1c(O)c(-c2nc(-c3nn[nH]n3)c3cc(N4CCNCC4)ccc3n2)cc2cn(C)nc12 [Compound 541, 2,7-dimethyl-5-[6-(piperazin-1-yl)-4-(2H-1,2,3,4-tetrazol-5-yl)quinazolin-2-yl]indazol-6-ol] | > 10000 | 1000 to 10000 | 1000 to 10000 | 1000 to 10000 | 1000 to 10000 | 1000 to 10000 | 1000 to 10000 | 1000 to 10000
8 | C[C@@H]1CN(c2ccc3nc(-c4cc5cn(C)nc5c(F)c4O)nc(C4CC4)c3c2)C[C@H](C)N1 [Compound 542, 5-{4-cyclopropyl-6-[(3R,5S)-3,5-dimethylpiperazin-1-yl]quinazolin-2-yl}-7-fluoro-2-methylindazol-6-ol] | < 100 | 1000 to 10000 | 1000 to 10000 | 1000 to 10000 | < 100 | < 100 | < 100 | < 100
9 | CN[C@@H]1CCN(c2ccc3nc(-c4cc5cn(C)nc5c(F)c4O)nc(C4CC4)c3c2)C1 [Compound 543, 5-{4-cyclopropyl-6-[(3R)-3-(methylamino)pyrrolidin-1-yl]quinazolin-2-yl}-7-fluoro-2-methylindazol-6-ol] | < 100 | < 100 | < 100 | < 100 | < 100 | < 100 | < 100 | < 100
10 | Cc1cn2cc(-c3ccc4cc(N5C[C@@H](C)N[C@@H](C)C5)cc(F)c4n3)cc(F)c2n1 [Compound 544, 6-[(3R,5S)-3,5-dimethylpiperazin-1-yl]-8-fluoro-2-{8-fluoro-2-methylimidazo[1,2-a]pyridin-6-yl}quinoline] | 100 to 1000 | 100 to 1000 | 100 to 1000 | 100 to 1000 | 100 to 1000 | 100 to 1000 | 100 to 1000 | < 100
11 | CNC(=O)c1nc(-c2cc3cn(C)nc3c(C)c2O)nc2ccc(N3C[C@H](C)N[C@@H](C)C3)cc12 [Compound 652, 6-[(3S,5S)-3,5-dimethylpiperazin-1-yl]-2-(6-hydroxy-2,7-dimethylindazol-5-yl)-N-methylquinazoline-4-carboxamide] | < 100 | 100 to 1000 | 100 to 1000 | 100 to 1000 | < 100 | < 100 | < 100 | < 100
12 | Cc1c(O)c(-c2ncc3cc(N4C[C@H](C)N[C@@H](C)C4)ccc3n2)cc2cn(C)nc12 [Compound 660, 5-{6-[(3S,5S)-3,5-dimethylpiperazin-1-yl]quinazolin-2-yl}-2,7-dimethylindazol-6-ol] | < 100 | 100 to 1000 | 100 to 1000 | 100 to 1000 | < 100 | < 100 | < 100 | < 100
13 | CNC(=O)c1nc(-c2cc3cn(C)nc3c(C)c2O)nc2ccc(N3CCC(N4CCC4)CC3)cc12 [Compound 706] | < 100 | 1000 to 10000 | 100 to 1000 | 100 to 1000 | < 100 | < 100 | < 100 | < 100
14 | C[C@@H]1CN(c2ccc3nc(-c4cc5cn(C)nc5c(F)c4O)nc(C#N)c3c2)C[C@H](C)N1 [Compound 707, 6-[(3R,5S)-3,5-dimethylpiperazin-1-yl]-2-(7-fluoro-6-hydroxy-2-methylindazol-5-yl) quinazoline-4-carbonitrile] | < 100 | 100 to 1000 | 100 to 1000 | 100 to 1000 | < 100 | < 100 | < 100 | < 100
15 | C[C@@H]1CN(c2ccc3nc(-c4cc5cn(C)nc5c(F)c4O)nc(C(N)=O)c3c2)C[C@H](C)N1 [Compound 712, 6-[(3R,5S)-3,5-dimethylpiperazin-1-yl]-2-(7-fluoro-6-hydroxy-2-methylindazol-5-yl) quinazoline-4-carboxamide] | < 100 | 1000 to 10000 | 1000 to 10000 | 1000 to 10000 | < 100 | < 100 | < 100 | < 100
